According to patent US11110195B2, “Esculentin 1a derivatives and uses thereof” (University of Houston System, priority 2013, dated 2021):
≈ marks a conversion by molar mass, not a printed value. Residues, ends and D or L forms follow the SMILES beside them.

Tests used:
HaCaT keratinocytes = test system: HaCaT keratinocytes
Description: Cell viability is expressed as percentage with respect to the control (cells not treated with the peptide). Data points represent the mean of triplicate samples ±SEM.

Pseudomonas aeruginosa = Pseudomonas aeruginosa ATCC 27853, reference strain; cited from earlier work
[1] = test system: Pseudomonas aeruginosa ATCC 19660; test: Viable bacterial count in infected corneas; type: in vivo, C57BL/6 mice; settings: for difference in viable bacterial counts vs PBS control: pre-treated or treated groups; for viable bacterial count in cornea: pre-treated
Description: Corneas were harvested 1, 3 and 5 days after infection and the number of surviving bacteria determined. […] P1=post infection; Pre-trt=pretreatment with Esc-1a(1-21)NH2. *Indicates significant difference, p<0.05, among PBS control and peptide treated groups.
To determine a clinical score, neutrophil infiltration by myeloperoxidase assay (MPO assay) and viable bacterial cell counts in infected and control corneas of C57BL/6 mice with Pseudomonas aeruginosa ATCC 19660 keratitis following pre-treatment and post-infection treatment with Esc-1a(1-21)NH2 up to 5 days post-infection (PI) the following experiment was performed. In these experiments pre-treatment refers to a group of animals where treatment was initiated 24 hrs before infection then continued after infection.
To quantitate viable bacteria, a 100 μl aliquot from the corneal homogenates was serially diluted 1:10 in sterile PBS. Duplicate aliquots (20 μl) of each dilution, including the original homogenate, were plated onto nutrient agar. Plates were incubated for 14-16 h at 37° C.
The harvested corneas were homogenized, plated on growth media and the bacterial colonies recovered counted 14-18 hours post plating. Data plotted (FIG. 7) show the viable bacterial counts obtained from an average of 3 independent experiments.

in vitro = settings: human, human telomerase immortalized corneal epithelial cells
Protocol: (§1) Human corneal epithelial cells were incubated with varying concentrations of Esc-1a(1-21)NH2 for 24 hrs then cytotoxicity determined by MTT assay. Data are the mean of 3 independent experiments.
(§2) To determine the toxicity of Esc-1a(1-21)NH2 to human telomerase immortalized corneal epithelial cells, the following experiment was performed. The MTT (3-(4,5-Dimethylthiazole-2-yl)-2,5-diphenyltetrazolium bromide) assay measures the activity of enzymes that reduce the tetrazolium blue dye to a formazan salt. Mitochondrial reductase enzymes will reduce MTT to formazan, which can be visualized by colorimetric reaction the absorbance of which can be quantified.
(§3) MTT assay was performed on human telomerase immortalized corneal epithelial cells treated with different concentrations of the peptide for 24 hrs. The test was performed in triplicate or quadruplicate wells with concentrations of the peptide of up to 100 μM using the following protocol. On day 1, plated the telomerase immortalized epithelial cells at 10,000 cells/well in a 96 well plate. Incubated the plate at 37° C. for […] to allow the cells to attach to the plate and spread. On day 2, incubated the cells in serum free media for at least 6 hrs prior to peptide treatment. On day 3, stimulated the cells with 100, 50, 25, 10, 5, 1, 0.5 and 0.1 μM Esc-1a(1-21)NH2 in quadruplicate for 24 hrs. On day 4, added 50 μl of 0.02% Benzalkonium chloride into 4 wells as a positive control for 15 minutes. Added 50 μl of serum free media into all the other wells (total volume 100 μl). Added 10 μl of MTT stock solution into each of the well. Incubated at 37° C. for 3 hours. At the end of 3 hours purple crystals were visible under the microscope. Added 100 μl of stop solution into each well using a multichannel pipette. Pipetted up and down to dissolve all the crystals. Gently popped the bubbles using a 10 μl tip. Read plate using plate reader at 590 nm abs and 635 nm reference. Subtracted reference OD value (635) from 590 OD value and plotted graph.

[2] = test system: human telomerase immortalized corneal epithelial cells; test: in vitro; settings: 24 hrs
Protocol: as §1, §2, §3

[3] = MTT viability assay, A549 cells; settings: human
Protocol: Cell viability is expressed as percentage with respect to the control (cells not treated with the peptides). Data points represent the mean of triplicate samples ±SEM. […] The levels of statistical significance between the two peptides are indicated as follows: **p<0.01, ***p<0.001.
Cells were plated in wells of a microtiter plate, at 4×10^4 cells/well in DMEM supplemented with 2 mM glutamine and 2% FBS (for A549 cells) or DMEM containing 2 mM glutamine, non-essential amino acids (NEAA), sodium pyruvate and 2% FBS (for Raw 264.7 macrophages). After overnight incubation at 37° C. in a 5% CO2 atmosphere, the medium was replaced with 100 μl fresh serum-free medium supplemented with the peptides at different concentrations. After 24 h of peptide treatment, cell viability was determined by a MTT assay.

Question: For CC[C@H](C)[C@H](NC(=O)CN)C(=O)N[C@@H](Cc1ccccc1)C(=O)N[C@@H](CO)C(=O)N[C@@H](CCCCN)C(=O)N[C@@H](CC(C)C)C(=O)N[C@@H](C)C(=O)NCC(=O)N[C@@H](CCCCN)C(=O)N[C@@H](CCCCN)C(=O)N[C@H](C(=O)N[C@@H](CCCCN)C(=O)N[C@@H](CC(N)=O)C(=O)N[C@@H](CC(C)C)C(=O)N[C@@H](CC(C)C)C(=O)N[C@H](C(=O)N[C@@H](CO)C(=O)NCC(=O)N[C@@H](CC(C)C)C(=O)N[C@@H](CCCCN)C(=O)NCC(N)=O)[C@@H](C)CC)[C@@H](C)CC [Esc-1a(1-21)NH2] (H-GIFSKLAGKKIKNLLISGLKG-NH2; N-terminus assumed), which “reduction in the number of metabolically-active keratinocytes” value (HaCaT keratinocytes; 2 h treatment, 1-64 μM) is on record?
Answer: did not show any remarkable reduction

Question: What about the “reduction in the percentage of metabolically-active cells” value (HaCaT keratinocytes; 24 h, 32 μM and 64 μM) of the same molecule?
Answer: approximately 20%

Question: What about the MIC (Pseudomonas aeruginosa) of the same molecule?
Answer: 4 µM (≈ 8.74 µg/mL)

Question: And the “difference in viable bacterial counts vs PBS control” value ([1]; day 5 PI)?
Answer: 4 log10

Question: What about the “difference in viable bacterial counts vs PBS control” value ([1]; days 1 and 3 PI) of the same molecule?
Answer: 2-3 log10 CFU

Question: And the “viable bacterial count in cornea” value ([1]; day 1 PI)?
Answer: 3.35 log10 CFU

Question: And the “viable bacterial count in cornea” value ([1]; day 3 PI)?
Answer: 3.7 log10 CFU

Question: And the “viable bacterial count in cornea” value ([1]; day 5 PI)?
Answer: 3.47 log10 CFU

Question: What about the viability at 24 h, 50 µM (in vitro) of the same molecule?
Answer: 75.7%

Question: What about the viability at 24 h, 100 µM (in vitro) of the same molecule?
Answer: 17.4%

Question: What about the concentrations significantly cytotoxic ([2]; MTT (FIG. 4)) of the same molecule?
Answer: above 50 μM

Question: What about the “toxicity to the cells” value ([2]; concentration below 50 μM) of the same molecule?
Answer: not toxic

Question: And the CC50 at 24 h [3]?
Answer: 150 µM
